Results reported in the supplement of paper PMC10307832.

What was measured:
Assay in all cases: relative viability (nuclei count vs DMSO), 5 days (fraction); higher = more cells survive
[1] = test system: LXF-289
Procedure, shortened: (§1)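 Relative viability equals treated-well nuclei counts divided by vehicle-well nuclei counts. Counts came from 4× images of lung cancer cell lines grown in 1536-well plates for 5 days after pin-tool dosing on the day after seeding. Dosing used one drug alone or a fixed anchor-drug dose plus five library-drug doses (not always all listed) in √10 steps, and values are medians of duplicate plates.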

[2] = test system: RERF-LC-KJ
Procedure, shortened: as §1

[3] = test system: NCI-H1792
Procedure, shortened: as §1

[4] = test system: LCLC-103H
Procedure, shortened: as §1

[5] = test system: NCI-H1563
Procedure, shortened: as §1

[6] = test system: NCI-H2347
Procedure, shortened: as §1

[7] = test system: NCI-H1355
Procedure, shortened: as §1

[8] = test system: NCI-H1755
Procedure, shortened: as §1

[9] = test system: NCI-H596
Procedure, shortened: as §1

[10] = test system: NCI-H727
Procedure, shortened: as §1

[11] = test system: NCI-H1651
Procedure, shortened: as §1

[12] = test system: NCI-H650
Procedure, shortened: as §1

[13] = test system: NCI-H1915
Procedure, shortened: as §1

[14] = test system: NCI-H460
Procedure, shortened: as §1

[15] = test system: NCI-H322M
Procedure, shortened: as §1

[16] = test system: NCI-H3122
Procedure, shortened: as §1

[17] = test system: NCI-H520
Procedure, shortened: as §1

[18] = test system: NCI-H441
Procedure, shortened: as §1

[19] = test system: PC-14
Procedure, shortened: as §1

[20] = test system: NCI-H661
Procedure, shortened: as §1

With `C[C@@H]1CN(CC(=O)Nc2ccc3c(c2)Cc2cccc(-c4cc(=O)cc(N5CCOCC5)o4)c2S3)C[C@H](C)O1` + CC(C)C[C@H](NC(=O)[C@H](Cc1ccccc1)NC(=O)c1cnccn1)B(O)O [Bortezomib] (partner 0.002 µM) the relative viability ([1]; first compound 0.04 µM) was 0.996, the relative viability ([1]; first compound 0.1265 µM) was 0.977 and the relative viability ([1]; first compound 0.4 µM) was 1.02. It also gave a relative viability ([1]; first compound 4 µM) of 0.999, a relative viability ([2]; first compound 0.04 µM) of 1.24 and a relative viability ([2]; first compound 0.1265 µM) of 1.17. The relative viability ([2]; first compound 0.4 µM) was 1.07, the relative viability ([2]; first compound 4 µM) was 0.998 and the relative viability ([3]; first compound 0.04 µM) was 0.939. The relative viability ([3]; first compound 0.1265 µM) was 0.913, the relative viability ([3]; first compound 0.4 µM) was 0.924 and the relative viability ([3]; first compound 4 µM) was 0.859. It also gave a relative viability ([4]; first compound 0.04 µM) of 1.19, a relative viability ([4]; first compound 0.1265 µM) of 1.03 and a relative viability ([4]; first compound 0.4 µM) of 1.09. It also gave a relative viability ([4]; first compound 4 µM) of 0.999, a relative viability ([5]; first compound 0.04 µM) of 0.89 and a relative viability ([5]; first compound 0.1265 µM) of 1.01. The relative viability ([5]; first compound 0.4 µM) was 0.828, the relative viability ([5]; first compound 4 µM) was 0.797 and the relative viability ([6]; first compound 0.04 µM) was 0.923. The relative viability ([6]; first compound 0.1265 µM) was 1.03, the relative viability ([6]; first compound 0.4 µM) was 1.2 and the relative viability ([6]; first compound 4 µM) was 0.958. The relative viability ([7]; first compound 0.04 µM) was 1.2, the relative viability ([7]; first compound 0.1265 µM) was 1.23 and the relative viability ([7]; first compound 0.4 µM) was 1.19. It also gave a relative viability ([7]; first compound 4 µM) of 1.18, a relative viability ([8]; first compound 0.04 µM) of 1.05 and a relative viability ([8]; first compound 0.1265 µM) of 1.01. It also gave a relative viability ([8]; first compound 0.4 µM) of 0.948, a relative viability ([8]; first compound 4 µM) of 0.942 and a relative viability ([9]; first compound 0.04 µM) of 0.937. The relative viability ([9]; first compound 0.1265 µM) was 1.12, the relative viability ([9]; first compound 0.4 µM) was 1.01 and the relative viability ([9]; first compound 4 µM) was 0.923. For the same compound, the relative viability ([10]; first compound 0.04 µM) was 0.892, the relative viability ([10]; first compound 0.1265 µM) was 0.824 and the relative viability ([10]; first compound 0.4 µM) was 0.804. For the same compound, the relative viability ([10]; first compound 4 µM) was 0.878, the relative viability ([11]; first compound 0.04 µM) was 0.848 and the relative viability ([11]; first compound 0.1265 µM) was 0.866. It also gave a relative viability ([11]; first compound 0.4 µM) of 0.922, a relative viability ([11]; first compound 4 µM) of 0.976 and a relative viability ([12]; first compound 0.04 µM) of 0.742. The relative viability ([12]; first compound 0.1265 µM) was 0.801, the relative viability ([12]; first compound 0.4 µM) was 0.761 and the relative viability ([12]; first compound 4 µM) was 0.552. The relative viability ([13]; first compound 0.04 µM) was 0.905, the relative viability ([13]; first compound 0.1265 µM) was 0.964 and the relative viability ([13]; first compound 0.4 µM) was 1.03. It also gave a relative viability ([13]; first compound 4 µM) of 0.73, a relative viability ([14]; first compound 0.04 µM) of 1.13 and a relative viability ([14]; first compound 0.1265 µM) of 1.05. The relative viability ([14]; first compound 0.4 µM) was 1.24, the relative viability ([14]; first compound 4 µM) was 0.759 and the relative viability ([15]; first compound 0.04 µM) was 1.09. For the same compound, the relative viability ([15]; first compound 0.1265 µM) was 1.14, the relative viability ([15]; first compound 0.4 µM) was 1.32 and the relative viability ([15]; first compound 4 µM) was 1.12. For the same compound, the relative viability ([16]; first compound 0.04 µM) was 1.06, the relative viability ([16]; first compound 0.1265 µM) was 0.977 and the relative viability ([16]; first compound 0.4 µM) was 1.02. It also gave a relative viability ([16]; first compound 4 µM) of 0.969, a relative viability ([17]; first compound 0.04 µM) of 0.906 and a relative viability ([17]; first compound 0.1265 µM) of 0.671. For the same compound, the relative viability ([17]; first compound 0.4 µM) was 0.247, the relative viability ([17]; first compound 4 µM) was 0.584 and the relative viability ([18]; first compound 0.04 µM) was 0.6. For the same compound, the relative viability ([18]; first compound 0.4 µM) was 0.445, the relative viability ([18]; first compound 4 µM) was 0.489 and the relative viability ([19]; first compound 0.04 µM) was 0.993. It also gave a relative viability ([19]; first compound 0.1265 µM) of 0.859, a relative viability ([19]; first compound 0.4 µM) of 0.798 and a relative viability ([19]; first compound 4 µM) of 0.664. The relative viability ([20]; first compound 0.1265 µM) was 0.798, the relative viability ([20]; first compound 0.4 µM) was 0.765 and the relative viability ([20]; first compound 4 µM) was 0.778.
